Target: MbcT (Rv1989c) (Mycobacterium tuberculosis, UniProt P9WLP9)
Sequence (P9WLP9 whole entry): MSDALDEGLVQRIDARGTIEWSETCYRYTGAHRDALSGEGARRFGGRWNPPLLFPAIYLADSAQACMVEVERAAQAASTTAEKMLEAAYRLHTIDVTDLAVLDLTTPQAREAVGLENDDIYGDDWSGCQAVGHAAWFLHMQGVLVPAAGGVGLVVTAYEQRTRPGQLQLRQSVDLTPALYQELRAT

## NC(=O)c1ccc[n+]([C@@H]2O[C@H](COP(=O)(O)OP(=O)(O)OC[C@H]3O[C@@H](n4cnc5c(N)ncnc54)[C@H](O)[C@@H]3O)[C@@H](O)[C@H]2O)c1 [NAD^+]
  Km: 110 ± 8 µM
